# Reference: US20240360178A1, “MACROCYCLIC IMMUNOMODULATORS” (Bristol-Myers Squibb Company, priority 2021, published 2024)
# Positions of bridges follow the written chain, without caps; N, C: chain ends. Non-standard residues stand in square brackets, D forms with d. Residues, ends and D or L forms follow the SMILES beside them. *: point of attachment. Phe(4-COOH) = N[C@@H](Cc1ccc(C(=O)O)cc1)C(=O)O; Bip = N[C@@H](Cc1ccc(-c2ccccc2)cc1)C(=O)O; Phe(3-CN) = N#Cc1cccc(C[C@H](N)C(=O)O)c1; Phe(3-OMe) = COc1cccc(C[C@H](N)C(=O)O)c1; NMeF = CN[C@@H](Cc1ccccc1)C(=O)O; 4Pal = N[C@@H](Cc1ccncc1)C(=O)O; Cit = NC(=O)NCCC[C@H](N)C(=O)O; Carboxymethyl = O=C(O)C*; NMeA = CN[C@@H](C)C(=O)O; Orn = NCCC[C@H](N)C(=O)O; Dab = NCC[C@H](N)C(=O)O; Dap = NC[C@H](N)C(=O)O
# Biological target: T1, human PD-1 (Jurkat-PD-1 cells) / PE-labeled human PD-L1-Ig (Homo sapiens, UniProt Q15116)
# T1 construct: expressed in transfected cells; host or cells: Jurkat cell line over-expressing human PD-1
# T1 sequence (Q15116 25-288): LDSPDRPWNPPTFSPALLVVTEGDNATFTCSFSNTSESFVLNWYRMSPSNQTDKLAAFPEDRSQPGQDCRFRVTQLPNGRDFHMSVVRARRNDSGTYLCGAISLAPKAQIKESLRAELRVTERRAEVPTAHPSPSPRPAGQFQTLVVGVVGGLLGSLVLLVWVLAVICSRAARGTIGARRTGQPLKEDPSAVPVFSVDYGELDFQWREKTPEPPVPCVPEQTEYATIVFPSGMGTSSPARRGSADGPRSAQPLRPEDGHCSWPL
# Experiment: Jurkat-PD-1 Cell Binding High-Content Screening Assay (CBA); Jurkat hPD1-PDL1 assay
# Settings: Jurkat cell line over-expressing human PD-1; PE-labeled PD-L1-Ig 20 nM final; compound incubated 2 hours at 37° C.; read-out: Jurkat HPD1-PDL1 IC50
# How it was run: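 Read-out is high-content imaging of PE fluorescence on PD-1-over-expressing Jurkat cells. Cells are first exposed to compound for 2 hours at 37° C in serum-containing DMEM, after which PE-labeled PD-L1-Ig is added at 20 nM final.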
row,IC50,Structure (SMILES)
1,40 nM,CC(C)C[C@@H]1NC(=O)[C@H](CCCNC(=N)N)NC(=O)[C@H](Cc2ccccc2)N(C)C(=O)[C@H](C)N(C)C(=O)[C@H](CCC(=O)O)NC(=O)[C@H](Cc2ccc(-c3ccccc3)cc2)NC(=O)[C@H](C(C)C)NC(=O)[C@H](Cc2c[nH]c3ccccc23)NC(=O)[C@H](CC(=O)O)NC(=O)[C@H](Cc2ccc(O)cc2)NC(=O)[C@H](CC(N)=O)NC(=O)CSC[C@@H](C(=O)N[C@@H](C)C(N)=O)NC(=O)[C@H]([C@@H](C)O)NC(=O)[C@H](C(C)C)NC1=O [Example 1379] ({CH2CO}-NYDWV[Bip]E[NMeA][NMeF]RLVTCA-NH2; thioether N-14)
2,70 nM,CC(C)C[C@@H]1NC(=O)[C@H](CCN)NC(=O)[C@H](Cc2ccccc2)N(C)C(=O)[C@H](C)N(C)C(=O)[C@H](CCC(=O)O)NC(=O)[C@H](Cc2ccc(-c3ccccc3)cc2)NC(=O)[C@H](C(C)C)NC(=O)[C@H](Cc2c[nH]c3ccccc23)NC(=O)[C@H](CC(=O)O)NC(=O)[C@H](Cc2ccc(O)cc2)NC(=O)[C@H](CC(N)=O)NC(=O)CSC[C@@H](C(=O)N[C@@H](C)C(N)=O)NC(=O)[C@H](CCCN)NC(=O)[C@H](C(C)C)NC1=O [Example 1380] ({CH2CO}-NYDWV[Bip]E[NMeA][NMeF][Dab]LV[Orn]CA-NH2; thioether N-14)
3,160 nM,CC(C)C[C@@H]1NC(=O)[C@H](CCCNC(=N)N)NC(=O)[C@H](Cc2ccccc2)N(C)C(=O)[C@H](C)N(C)C(=O)[C@H](CCCNC(N)=O)NC(=O)[C@H](Cc2ccc(-c3ccccc3)cc2)NC(=O)[C@H](C(C)C)NC(=O)[C@H](Cc2c[nH]c3ccccc23)NC(=O)[C@H](CC(=O)O)NC(=O)[C@H](Cc2ccc(O)cc2)NC(=O)[C@H](CC(N)=O)NC(=O)CSC[C@@H](C(=O)NCC(N)=O)NC(=O)[C@H](CO)NC(=O)[C@H](C(C)C)NC1=O [Example 1381] ({CH2CO}-NYDWV[Bip][Cit][NMeA][NMeF]RLVSCG-NH2; thioether N-14)
4,630 nM,CC(C)C[C@@H]1NC(=O)[C@H](CCCNC(=N)N)NC(=O)[C@H](Cc2ccccc2)N(C)C(=O)[C@H](CCCN)NC(=O)[C@H](CCCNC(=N)N)NC(=O)[C@H](Cc2ccc(-c3ccccc3)cc2)NC(=O)[C@H](C(C)C)NC(=O)[C@H](Cc2c[nH]c3ccccc23)NC(=O)[C@H](CC(=O)O)NC(=O)[C@H](Cc2ccc(O)cc2)NC(=O)[C@H](CC(N)=O)NC(=O)CSC[C@@H](C(=O)N[C@@H](C)C(N)=O)NC(=O)[C@H]([C@@H](C)O)NC(=O)[C@H](C(C)C)NC1=O [Example 1383] ({CH2CO}-NYDWV[Bip]R[Orn][NMeF]RLVTCA-NH2; thioether N-14)
5,220 nM,CC(C)C[C@@H]1NC(=O)[C@H](CCCCN)NC(=O)[C@H](Cc2ccccc2)N(C)C(=O)[C@H](C)N(C)C(=O)[C@H](CCCNC(=N)N)NC(=O)[C@H](Cc2ccc(-c3ccccc3)cc2)NC(=O)[C@H](C(C)C)NC(=O)[C@H](Cc2c[nH]c3ccccc23)NC(=O)[C@H](CC(=O)O)NC(=O)[C@H](Cc2ccc(O)cc2)NC(=O)[C@H](CC(N)=O)NC(=O)CSC[C@@H](C(=O)N[C@@H](C)C(N)=O)NC(=O)[C@H]([C@@H](C)O)NC(=O)[C@H](C(C)C)NC1=O [Example 1384] ({CH2CO}-NYDWV[Bip]R[NMeA][NMeF]KLVTCA-NH2; thioether N-14)
6,10 nM,COc1cccc(C[C@@H]2NC(=O)[C@H](CC(=O)O)NC(=O)[C@H](Cc3ccc(C(=O)O)cc3)NC(=O)[C@H](Cc3ccncc3)NC(=O)CSC[C@@H](C(=O)N[C@@H](C)C(N)=O)NC(=O)[C@H](CO)NC(=O)[C@H](C(C)C)NC(=O)[C@H](CC(C)C)NC(=O)[C@H](CC(N)=O)NC(=O)[C@H]3CCCN3C(=O)[C@H](C)N(C)C(=O)[C@H](C(C)C)NC(=O)[C@H](Cc3ccc(-c4ccccc4)cc3)NC(=O)[C@H](CC(C)C)NC2=O)c1 [Example 1387] ({CH2CO}-[4Pal][Phe(4-COOH)]D[Phe(3-OMe)]L[Bip]V[NMeA][dP]NLVSCA-NH2; thioether N-14)
7,50 nM,CC(C)C[C@@H]1NC(=O)[C@H](CC(N)=O)NC(=O)[C@H]2CCCN2C(=O)[C@H](C)N(C)C(=O)[C@H](C(C)C)NC(=O)[C@H](Cc2ccc(-c3ccccc3)cc2)NC(=O)[C@@H](CC(C)C)NC(=O)[C@H](Cc2c[nH]c3ccccc23)NC(=O)[C@H](CC(=O)O)NC(=O)[C@H](Cc2ccc(C(=O)O)cc2)NC(=O)[C@H](Cc2ccncc2)NC(=O)CSC[C@@H](C(=O)N[C@@H](C)C(N)=O)NC(=O)[C@@H](CO)NC(=O)[C@H](C(C)C)NC1=O [Example 1389] ({CH2CO}-[4Pal][Phe(4-COOH)]DW[dL][Bip]V[NMeA][dP]NLV[dS]CA-NH2; thioether N-14)
8,40 nM,CC(C)C[C@@H]1NC(=O)[C@H](Cc2c[nH]c3ccccc23)NC(=O)[C@H](CC(=O)O)NC(=O)[C@H](Cc2ccc(OCC(=O)O)cc2)NC(=O)[C@H](Cc2ccncc2)NC(=O)CSC[C@@H](C(=O)N[C@@H](C)C(N)=O)NC(=O)[C@H](CO)NC(=O)[C@H](C(C)C)NC(=O)[C@H](CC(C)C)NC(=O)[C@H](CC(N)=O)NC(=O)[C@H]2CCCN2C(=O)[C@H](C)N(C)C(=O)[C@H](C(C)C)NC(=O)[C@H](Cc2ccc(-c3ccccc3)cc2)NC1=O [Example 1391] ({CH2CO}-[4Pal]Y(Carboxymethyl)DWL[Bip]V[NMeA][dP]NLVSCA-NH2; thioether N-14)

# More lines, now with the values behind:
row,Structure (SMILES),IC50
1,CC(C)C[C@@H]1NC(=O)[C@H](CCCNC(=N)N)NC(=O)[C@H](Cc2ccccc2)N(C)C(=O)[C@H](C)N(C)C(=O)[C@H](CCCNC(N)=O)NC(=O)[C@H](Cc2ccc(-c3ccccc3)cc2)NC(=O)[C@H](C(C)C)NC(=O)[C@H](Cc2c[nH]c3ccccc23)NC(=O)[C@H](CC(=O)O)NC(=O)[C@H](Cc2ccc(O)cc2)NC(=O)[C@H](CC(N)=O)NC(=O)CSC[C@@H](C(=O)N[C@@H](C)C(N)=O)NC(=O)[C@H](CO)NC(=O)[C@H](C(C)C)NC1=O [Example 1377] ({CH2CO}-NYDWV[Bip][Cit][NMeA][NMeF]RLVSCA-NH2; thioether N-14),40 nM
2,CC(C)C[C@@H]1NC(=O)[C@H](CCCNC(=N)N)NC(=O)[C@H](Cc2ccccc2)N(C)C(=O)[C@H](C)N(C)C(=O)[C@H](CCC(=O)O)NC(=O)[C@H](Cc2ccc(-c3ccccc3)cc2)NC(=O)[C@H](C(C)C)NC(=O)[C@H](Cc2c[nH]c3ccccc23)NC(=O)[C@H](CC(=O)O)NC(=O)[C@H](Cc2ccc(O)cc2)NC(=O)[C@H](CC(N)=O)NC(=O)CSC[C@@H](C(=O)N[C@@H](C)C(N)=O)NC(=O)[C@H](CCCN)NC(=O)[C@H](C(C)C)NC1=O [Example 1378] ({CH2CO}-NYDWV[Bip]E[NMeA][NMeF]RLV[Orn]CA-NH2; thioether N-14),110 nM
3,CC(C)C[C@@H]1NC(=O)[C@H](CCCNC(=N)N)NC(=O)[C@H](Cc2ccccc2)N(C)C(=O)[C@H](C)N(C)C(=O)[C@H](CCC(=O)O)NC(=O)[C@H](Cc2ccc(-c3ccccc3)cc2)NC(=O)[C@H](C(C)C)NC(=O)[C@H](Cc2c[nH]c3ccccc23)NC(=O)[C@H](CC(=O)O)NC(=O)[C@H](Cc2ccc(O)cc2)NC(=O)[C@H](CC(N)=O)NC(=O)CSC[C@@H](C(=O)N[C@@H](C)C(N)=O)NC(=O)[C@H](CO)NC(=O)[C@H](C(C)C)NC1=O [Example 1382] ({CH2CO}-NYDWV[Bip]E[NMeA][NMeF]RLVSCA-NH2; thioether N-14),130 nM
4,CC(C)C[C@@H]1NC(=O)[C@H](CCCCN)NC(=O)[C@H](Cc2ccccc2)N(C)C(=O)[C@H](C)N(C)C(=O)[C@H](CCCNC(=N)N)NC(=O)[C@H](Cc2ccc(-c3ccccc3)cc2)NC(=O)[C@H](C(C)C)NC(=O)[C@H](Cc2c[nH]c3ccccc23)NC(=O)[C@H](CC(=O)O)NC(=O)[C@H](Cc2ccc(O)cc2)NC(=O)[C@H](CC(N)=O)NC(=O)CSC[C@@H](C(=O)N[C@@H](C)C(N)=O)NC(=O)[C@H]([C@@H](C)O)NC(=O)[C@H](C(C)C)NC1=O [Example 1385] ({CH2CO}-NYDWV[Bip]R[NMeA][NMeF]KLVTCA-NH2; thioether N-14),280 nM
5,CC(C)C[C@@H]1NC(=O)[C@H](Cc2c[nH]c3ccccc23)NC(=O)[C@H](CC(=O)O)NC(=O)[C@H](Cc2ccc(OCC(=O)O)cc2)NC(=O)[C@H](CN)NC(=O)CSC[C@@H](C(=O)N[C@@H](C)C(N)=O)NC(=O)[C@H](CO)NC(=O)[C@H](C(C)C)NC(=O)[C@H](CC(C)C)NC(=O)[C@H](CC(N)=O)NC(=O)[C@H]2CCCN2C(=O)[C@H](C)N(C)C(=O)[C@H](C(C)C)NC(=O)[C@H](Cc2ccc(-c3ccccc3)cc2)NC1=O [Example 1386] ({CH2CO}-[Dap]Y(Carboxymethyl)DWL[Bip]V[NMeA][dP]NLVSCA-NH2; thioether N-14),140 nM
6,COc1cccc(C[C@@H]2NC(=O)[C@H](CC(=O)O)NC(=O)[C@H](Cc3cccc(C#N)c3)NC(=O)[C@H](Cc3ccncc3)NC(=O)CSC[C@@H](C(=O)N[C@@H](C)C(N)=O)NC(=O)[C@H](CO)NC(=O)[C@H](C(C)C)NC(=O)[C@H](CC(C)C)NC(=O)[C@H](CC(N)=O)NC(=O)[C@H]3CCCN3C(=O)[C@H](C)N(C)C(=O)[C@H](C(C)C)NC(=O)[C@H](Cc3ccc(-c4ccccc4)cc3)NC(=O)[C@H](CC(C)C)NC2=O)c1 [Example 1388] ({CH2CO}-[4Pal][Phe(3-CN)]D[Phe(3-OMe)]L[Bip]V[NMeA][dP]NLVSCA-NH2; thioether N-14),20 nM
7,CC(C)C[C@@H]1NC(=O)[C@H](Cc2c[nH]c3ccccc23)NC(=O)[C@H](CC(=O)O)NC(=O)[C@H](Cc2ccc(C(=O)O)cc2)NC(=O)[C@H](CN)NC(=O)CSC[C@@H](C(=O)N[C@@H](C)C(N)=O)NC(=O)[C@H](CO)NC(=O)[C@H](C(C)C)NC(=O)[C@H](CC(C)C)NC(=O)[C@H](CC(N)=O)NC(=O)[C@H]2CCCN2C(=O)[C@H](C)N(C)C(=O)[C@H](C(C)C)NC(=O)[C@H](Cc2ccc(-c3ccccc3)cc2)NC1=O [Example 1390] ({CH2CO}-[Dap][Phe(4-COOH)]DWL[Bip]V[NMeA][dP]NLVSCA-NH2; thioether N-14),20 nM
